The values that follow come from patent US5705531A, “1,5-disubstituted 7A-methylperhydroinden-3A-ol derivatives, useful in treating cardiovascular disorders, processes for their preparation and pharmaceutical compositions containing the same” (Sigma-Tau Industrie Farmaceutiche Riunite S.p.A., priority 1994, dated 1998).

Test [1] deals with T1, Na^+,K^+ -ATPase (Homo sapiens, UniProt P05023).
T1 construct: Na^+,K^+ -ATPase receptor purified according to Jorghensen; from tissue
The experiment in a line: inhibition of the activity of the purified Na+,K+-ATPase (% hydrolysis of 32P-ATP). The test is classed as biochemical. The source says: (§1) To test the affinity for the receptor site of the Na^+,K^+ -ATPase and the agonist or antagonist activity on the enzyme, the following tests were used:
b) inhibition of the activity of the purified Na^+,K^+ -ATPase measured as % of hydrolysis of ^32 P-ATP in presence and in absence of the tested compound (Doucet A. et al., Am. J. Physiol., 1986, 251, F851)

Test [2] has as its system spontaneous hypertensive rats (MHS). Description: effect of 5 week-treatment on the development of hypertension; SBP and HR by tail cuff method. It is filed as in vivo, rat (MHS). Conditions: 20 mg/Kg/os daily in Methocel 0.5%, 5 weeks; for SBP: n=7, controls 172 +/- 5,0; for HR: n=7, controls 380 +/- 6,3. On the procedure: Systolic blood pressure (SBP) and heart rate (HR) were measured, by the tail cuff method, in young prehypertensive male rats (MHS or SHR) strains before the development of hypertension (4 weeks of age) for recording the basal values of SBP. Groups of 7 rats were formed and subdivided in control and treated groups. The compound, suspended in Methocel 0.5% (w/v), was orally given daily for at least 5 weeks to the treated groups. The control group received only Methocel.
SBP and HR were measured weekly 6 and 24 hrs after treatment. After 5 weeks of treatment, when hypertension was fully developed in the control group (9 weeks of age), washout was started for at least one week, to verify whether the treatment maintained blood pressure low or reestablished the basal values.

For test [3], the target named is T1, Na^+,K^+ -ATPase. The experiment in a line: displacement of the specific 3H-ouabain binding from the purified Na+,K+-ATPase receptor.
Text: as §1
a) displacement of the specific ^3 H-ouabain binding from the Na^+,K^+ -ATPase receptor purified according to Jorghensen (Jorghensen P., BBA, 1974, 356, 36) and Erdmann (Erdmann E. et al., Arzneim. Forsh., 1984, 34, 1314);

Setting [4] is: 32P-ATP hydrolysis, purified Na+,K+-ATPase, read-out: Inhibitory Activity log IC50 (converted).
[5] abbreviates: 3H-ouabain, purified Na+,K+-ATPase, read-out: Binding 3H-Ouab. Displacement log IC50 (converted).

Usually IC50 stands for the concentration that inhibits the measured activity by half.

Counter-ions that a name gives are not always drawn.

For `CN(C)CCO/N=C/[C@H]1CC[C@]2(O)C[C@@H](c3ccccc3)CC[C@]12C` [I-ap, (1S,3aS,5S,7aR)-1-[(E)-2-Dimethylaminoethoxyimino]methyl-5-phenyl-7a-methylperhydroinden-3a-ol], the IC50 is 39.8 µM on Na^+,K^+ -ATPase [1] (setting [4]) and 2 µM at Na^+,K^+ -ATPase [3] (setting [5]). Besides, in test [2], the SBP is listed as 155 +/- 4,3 mm Hg. Besides, the HR in test [2] is reported as 370 +/- 10,5 bEATS/min.

For the compound `CN(C)CCO/N=C/[C@H]1CC[C@]2(O)C[C@@H](c3cccc(O)c3)CC[C@]12C` [I-au, (1S,3aS,5S,7aR)-1-[(E)-2-Dimethylaminoethoxyimino]methyl-5-(3-hydroxyphenyl)-7a-methylperhydroinden-3a-ol], the figures for the IC50 on Na^+,K^+ -ATPase [1] (setting [4]) and at Na^+,K^+ -ATPase [3] (setting [5]) were 50.1 µM and 6.31 µM, respectively.

With `CN(C)CCO/N=C/[C@H]1CC[C@]2(O)C[C@@H](c3ccc(O)cc3)CC[C@]12C` [I-ax, (1S,3aS,5S,7aR)-1-[(E)-2-Dimethylaminoethoxyimino]methyl-5-(4-hydroxyphenyl)-7a-methylperhydroinden-3a-ol], the IC50 at Na^+,K^+ -ATPase [1] (setting [4]) was 39.8 µM; on Na^+,K^+ -ATPase [3] (setting [5]) it was 1.58 µM. For the same compound, the SBP in test [2] is 156 +/- 4,6 mm Hg. In addition, the HR in test [2] was 383 +/- 11,4 bEATS/min.

On to `C[C@]12CC[C@H](c3ccc(CO)cc3)C[C@@]1(O)CC[C@@H]2/C=N/OCCN` [I-bb, (1S,3aS,5S,7aR)-1-[(E)-2-Aminoethoxyimino]methyl-5-(4-hydroxymethylphenyl)-7a-methylperhydroinden-3a-ol], for which the IC50 is 25.1 µM at Na^+,K^+ -ATPase [1] (setting [4]) and 1.58 µM at Na^+,K^+ -ATPase [3] (setting [5]).

As to `CN(C)CCO/N=C/[C@H]1CC[C@]2(O)C[C@@H](c3ccc(CO)cc3)CC[C@]12C` [I-bc, (1S,3aS,5S,7aR)-1-[(E)-2-Dimethylaminoethoxyimino]methyl-5-(4-hydroxymethylphenyl)-7a-methylperhydroinden-3a-ol], on Na^+,K^+ -ATPase [1] (setting [4]), the IC50 is 50.1 µM. In test [2], the SBP is reported as 160 +/- 7,8 mm Hg and the HR was 377 +/- 10,5 bEATS/min. Besides, the IC50 on Na^+,K^+ -ATPase [3] (setting [5]) was 5.01 µM.

`Cc1ccc([C@H]2CC[C@]3(C)[C@@H](/C=N/OCCN)CC[C@]3(O)C2)cc1` [I-bg, (1S,3aS,5S,7aR)-1-[(E)-2-Aminoethoxyimino]methyl-5-(4-methylphenyl)-7a-methylperhydroinden-3a-ol oxalate]: the IC50 is 31.6 µM against Na^+,K^+ -ATPase [1] and 3.98 µM on Na^+,K^+ -ATPase [3].

Take `Cc1ccc([C@H]2CC[C@]3(C)[C@@H](/C=N/OCCN(C)C)CC[C@]3(O)C2)cc1` [I-bh, (1S,3aS,5S,7aR)-1-[(E)-2-Dimethylaminoethoxyimino]methyl-5-(4-methylphenyl)-7a-methylperhydroinden-3a-ol]: the IC50 on Na^+,K^+ -ATPase [1] (setting [4]) was 50.1 µM; on Na^+,K^+ -ATPase [3] (setting [5]), 6.31 µM.

As to `CN(C)CCO/N=C/[C@H]1CC[C@]2(O)C/C(=C\CCO)CC[C@]12C` [I-bx, (1S,3aS,7aR)-1-[(E)-2-Dimethylaminoethoxyimino]methyl-5-[(Z)-3-hydroxypropyliden]-7a-methylperhydroinden-3a-ol], the IC50 is 63.1 µM on Na^+,K^+ -ATPase [1] (setting [4]) and 12.6 µM on Na^+,K^+ -ATPase [3] (setting [5]).

For the compound `CN(C)CCO/N=C/[C@H]1CC[C@]2(O)C/C(=C/CCO)CC[C@]12C` [I-by, (1S,3aS,7aR)-1-[(E)-2-Dimethylaminoethoxyimino]methyl-5-[(E)-3-hydroxypropyliden]-7a-methylperhydroinden-3a-ol], the IC50 on Na^+,K^+ -ATPase [1] (setting [4]) is 63.1 µM; on Na^+,K^+ -ATPase [3] (setting [5]), 20 µM.

For the compound `CN(C)CCONC[C@H]1CC[C@]2(O)C[C@@H](c3ccccc3)CC[C@]12C` [I-df, (1S,3aS,5S,7aR)-1-(2-Dimethylaminoethoxyamino)methyl-5-phenyl-7a-methylperhydroinden-3a-ol oxalate], the IC50 was 50.1 µM against Na^+,K^+ -ATPase [1] and 6.31 µM on Na^+,K^+ -ATPase [3].

As to `CN(C)CCONC[C@H]1CC[C@]2(O)C[C@@H](c3cccc(O)c3)CC[C@]12C` [I-di, (1S,3aS,5S,7aR)-1-(2-Dimethylaminoethoxyamino)methyl-5-(3-hydroxyphenyl)-7a-methylperhydroinden-3a-ol oxalate], the IC50 against Na^+,K^+ -ATPase [1] was 50.1 µM; at Na^+,K^+ -ATPase [3], 7.94 µM.
